pKi: −log10 of the molar value.

One experiment addresses T1, SULT1E1 (Homo sapiens, UniProt P49888).
T1 sequence (P49888 1-294): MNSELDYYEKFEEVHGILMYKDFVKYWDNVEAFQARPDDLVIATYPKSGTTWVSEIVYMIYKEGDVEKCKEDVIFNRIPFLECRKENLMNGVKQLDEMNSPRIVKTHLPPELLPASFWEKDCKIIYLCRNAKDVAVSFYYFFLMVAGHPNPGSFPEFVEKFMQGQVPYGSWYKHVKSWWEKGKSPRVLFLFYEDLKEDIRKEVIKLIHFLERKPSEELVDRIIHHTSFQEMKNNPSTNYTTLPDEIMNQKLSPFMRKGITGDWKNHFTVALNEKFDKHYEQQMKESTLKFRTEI
As to the kind of experiment: SULT1E1 inhibition test. In kind it is biochemical. Particulars: at 50 uM.

Another experiment has as its target T2, SULT2A1 (Homo sapiens, UniProt Q06520).
T2 sequence (Q06520 1-285): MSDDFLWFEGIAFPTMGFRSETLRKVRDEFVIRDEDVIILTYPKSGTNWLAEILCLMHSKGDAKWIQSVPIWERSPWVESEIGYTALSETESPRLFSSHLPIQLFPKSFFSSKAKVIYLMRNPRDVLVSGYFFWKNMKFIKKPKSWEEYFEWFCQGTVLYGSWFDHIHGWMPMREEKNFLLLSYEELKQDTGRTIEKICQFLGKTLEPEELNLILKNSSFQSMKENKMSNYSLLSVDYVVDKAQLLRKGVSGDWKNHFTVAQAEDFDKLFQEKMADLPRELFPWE
As to the kind of experiment: SULT2A1 inhibition test. In kind it is biochemical. The conditions noted are these: at 50 uM.

The next experiment concerns the target Green Monkey (1A3) (Chlorocebus sabaeus, UniProt Z9LO20H8W3). Description: Inhibition of SULT1A3 homologues in different species: Green Monkey. Format: biochemical. The procedure:
(§1) Compounds 12, 23 and 25 were also tested for Inhibition of SULT1A3 in different species.
(§2) Inhibition of SULT1A3 Homologues in Different Species. SULT1A3 is only expressed in humans and higher primates. SULT1D1 is the isoform expressed in dogs and rodents that sulfonates neurotransmitters and is most similar to SULT1A3. Three synthesized allosteres (12, 23, and 25) were tested against both 1A3 and 1D1 from different species in order to explore testing in animal models. […] Mice have been engineered such that their SULT1A1/2 enzymes have been knocked out and replaced with the human versions of those isoforms.

In the next experiment the target is Rhesus Macaque (1A3) (Macaca mulatta, UniProt A0A5F7ZQH3). Description: Inhibition of SULT1A3 homologues in different species: Rhesus Macaque. In kind it is biochemical. The procedure:
as §1, §2

For another experiment, the target named is Dog (1D1) (Canis lupus familiaris, UniProt A0A8I3RXJ1). As to the kind of experiment: Inhibition of SULT1A3 homologues in different species: Dog. Format: biochemical. How it is done: as §2, with “Compounds 12, 23 and 25 were also tested for Inhibition of SULT1A3 in different species. Inhibition” for “Inhibition”
Dog (1D1), sequence (A0A8I3RXJ1 entry or part of it): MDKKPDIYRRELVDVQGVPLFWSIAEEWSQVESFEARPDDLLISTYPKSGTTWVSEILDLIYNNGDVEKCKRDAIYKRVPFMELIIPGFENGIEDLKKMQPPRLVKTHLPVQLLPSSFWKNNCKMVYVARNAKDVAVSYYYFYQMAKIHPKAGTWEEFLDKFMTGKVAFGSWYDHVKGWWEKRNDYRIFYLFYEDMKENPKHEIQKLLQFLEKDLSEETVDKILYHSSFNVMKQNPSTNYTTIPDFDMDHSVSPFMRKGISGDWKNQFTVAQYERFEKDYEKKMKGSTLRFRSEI
A further experiment addresses T3, SULT1A3 F222A, H226A (Homo sapiens, UniProt P0DMM9, F222A/H226A).
T3 construct: N-His/GST/MBP triple-tag (N, cleaved yes); made in house; host or cells: E. coli BL21(DE3)
As to the kind of experiment: Binding-site mutation effect on Ki CMP8, F222A, H226A. Particulars: H226A versus wild type. In kind it is biochemical. How it is done:
Initial-Rate Studies. Initial-rate parameters for the labeled or mutant SULT1A3 constructs were determined using a previously described 1-HP assay (25). Briefly, reactions were initiated by addition of PAPS (0.50 mM, 17×Km) to a solution containing enzyme (20 nM, active sites), 1-HP (2.0 μM, ˜24×Km), and KPO4 (50 mM), pH 7.5, 25±2° C. Reactions were monitored via fluorescence change associated with the conversion of 1-HP to 1-HP-S (λex=325 nm, λem=370 nm). Keq for the 1-HP sulfonation reaction is […]. Given the reaction conditions outlined above, ≥99% of 1-HP is converted to 1-HP-S, and ˜0.4% of PAPS is converted to PAP at equilibrium. […] Reaction progress curves were analyzed to obtain initial-rate parameters as described previously (26,27).
Inhibition studies. Inhibition parameters were determined under conditions identical to those described above (see, Initial-Rate Studies) except that [1-HP] was increased to 5.0 μM (˜61×Km) and inhibitor concentration was varied between 0.20-20×Ki. Ki was obtained using a least-squares fit to the following partial inhibition equation (25,28): v=kcat·(Ki+(1/kcat inh)·[I])/(Ki+[I]), where kcat inh is enzyme turnover at saturating substrates and allosteric inhibitor.
Confirming the Structure. The structure was validated by testing its ability to predict the consequences of mutations on the initial-rate parameters of the enzyme. […]

Experiment [1] has as its target SULT1A3 spin-labeled at Cys 116 (Homo sapiens, UniProt P0DMM9, Q116C). As to the kind of experiment: Initial-rate parameters, spin-labeled SULT1A3 mutant 116.
Method: (§3) Covalent Tagging of SULT1A3 Cys Constructs. Labeling of the SULT1A3 Cys constructs was performed as described previously (17,18,21). Briefly, 3-maleimido-PROXYL (spin label) or N-cyclohexylmaleimide (diamagnetic control) was added to an enzyme containing solution at 20-fold excess over reactive Cys. Unreacted Cys was monitored using DNTB (17,18,21); reactions were considered complete when >98% of the Cys was labeled. Reaction conditions: SULT1A3 (50 μM, monomer), 3-maleimido-PROXYL or N-cyclohexylmaleimide (1.0 mM), PAP (0.50 mM), KPO4 (50 mM), pH 7.5, 4±2° C. To prepare samples for NMR, reaction mixtures were dialyzed three times against 40 volumes of PAP (0.50 mM), KPO4 (50 mM), pD 7.4, D2O (>95%), 4±2° C.
(§4) Initial-Rate Studies. Initial-rate parameters for the labeled or mutant SULT1A3 constructs were determined using a previously described 1-HP assay (25). […] Reactions were monitored via fluorescence change associated with the conversion of 1-HP to 1-HP-S (λex=325 nm, λem=370 nm). Keq for the 1-HP sulfonation reaction is −250. Given the reaction conditions outlined above, ≥99% of 1-HP is converted to 1-HP-S, and ˜0.4% of PAPS is converted to PAP at equilibrium. […] Reaction progress curves were analyzed to obtain initial-rate parameters as described previously (26,27).
The target in experiment [2] is SULT1A3 spin-labeled at Cys 198 (Homo sapiens, UniProt P0DMM9, E198C). As to the kind of experiment: Initial-rate parameters, spin-labeled SULT1A3 mutant 198.
SULT1A3 spin-labeled at Cys 198, sequence (P0DMM9 whole entry E198C): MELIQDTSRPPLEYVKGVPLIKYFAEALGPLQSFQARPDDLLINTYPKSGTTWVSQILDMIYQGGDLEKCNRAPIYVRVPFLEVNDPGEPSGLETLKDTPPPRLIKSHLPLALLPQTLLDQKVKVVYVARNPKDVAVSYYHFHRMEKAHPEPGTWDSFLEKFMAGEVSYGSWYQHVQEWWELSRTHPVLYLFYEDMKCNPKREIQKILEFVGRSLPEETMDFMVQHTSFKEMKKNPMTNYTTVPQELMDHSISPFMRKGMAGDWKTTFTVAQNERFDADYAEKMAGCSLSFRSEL
Method: as §3, §4
For experiment [3], the target named is SULT1A3 spin-labeled at Cys 234 (Homo sapiens, UniProt P0DMM9, K234C). As to the kind of experiment: Initial-rate parameters, spin-labeled SULT1A3 mutant 234.
SULT1A3 spin-labeled at Cys 234, sequence (P0DMM9 whole entry K234C): as the sequence (P0DMM9 whole entry E198C) above, with C198E, K234C counted along it
Method: as §3, §4

Rhesus Macaque (1A3), sequence (A0A5F7ZQH3 1-295): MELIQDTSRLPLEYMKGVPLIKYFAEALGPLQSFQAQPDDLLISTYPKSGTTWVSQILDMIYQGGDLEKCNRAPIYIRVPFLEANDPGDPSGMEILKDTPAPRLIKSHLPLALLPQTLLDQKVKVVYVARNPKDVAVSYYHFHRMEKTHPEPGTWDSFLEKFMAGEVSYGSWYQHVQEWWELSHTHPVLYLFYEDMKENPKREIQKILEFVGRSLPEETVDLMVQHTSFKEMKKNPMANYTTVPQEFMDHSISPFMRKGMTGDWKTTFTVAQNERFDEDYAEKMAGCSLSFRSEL
Green Monkey (1A3), sequence (Z9LO20H8W3 1-295): as the sequence (A0A5F7ZQH3 1-295) above, with T7A, M15V, Y23C, K230R, F247Y, E278A counted along it
T3 sequence (P0DMM9 whole entry F222A/H226A): as the sequence (P0DMM9 whole entry E198C) above, with C198E, F222A, H226A counted along it
SULT1A3 spin-labeled at Cys 116, sequence (P0DMM9 whole entry Q116C): as the sequence (P0DMM9 whole entry E198C) above, with Q116C, C198E counted along it

In general, pKi refers to the negative decadic logarithm of the Ki, by convention in mol/L. On to `CC(C)Cc1ccc2cc(CCC(N)=O)ccc2n1` [Compound 12], for which the “inhibition of SULT1E1” value at SULT1E1 is on record as “no inhibition was detected”. In addition, at SULT2A1, the “inhibition of SULT2A1” value is “no inhibition was detected”. In addition, on Green Monkey (1A3), the “Green Monkey (1A3) % inh” value is recorded as 71 (3) %. The pKi at Green Monkey (1A3) (parentheses one standard error) is 6.77; on Rhesus Macaque (1A3) (parentheses one standard error), 7.42; at Dog (1D1) (standard error in neighbouring cell), 7.11. Besides, the “Rhesus Macaque (1A3) % inh” value on Rhesus Macaque (1A3) is recorded as 97 (2) %. Besides, the “Dog (1D1) % inh” value on Dog (1D1) is 83 (6) %.

In the case of `CC(C)Cc1ccc2cc(CO)ccc2n1` [Compound 8, (2-Isobutylquinolin-6-yl)methanol], on SULT1A3 F222A, H226A, the “increase in Ki CMP8” value was determined as 60 fold. Moreover, the results for the pKi in experiment [1], in experiment [2] and in [3] were 7.43, 7.34 and 7.51, respectively.
